What all share (test): NCI anticancer screen, dose series, 48 h
Test [1] has as its system 786-0.
Test [2] concerns A498.
In test [3] the test system is A549.
In test [4] the test system is CCRF-CEM.
The subject of test [5] is DU-145.
Test [6] concerns HCT-15.
Test [7] deals with HT-29.
Test [8] deals with MDA-MB-435.
In test [9] the test system is MOLT-4.
Test [10] has as its system NCI-H522.
The test system of test [11] is NCI/ADR-RES.
Test [12] relates to OVCAR-5.
The test system of test [13] is OVCAR-8.
The test system of test [14] is PC-3.
Test [15] relates to RPMI-8226.
The subject of test [16] is SF-295.
Test [17] concerns UACC-257.
Test [18] relates to UO-31.
Test [19] has as its system SF-539.
For test [20], the system named is SNB-75.

Molecules are shown by their SMILES.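 96-well plates; 48 h exposure; 5 concentrations. Endpoints by linear interpolation between flanking doses. Not reached: highest tested concentration assigned. GI50 = concentration required for 50% inhibition of growth.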 The source made the active and inactive calls. No stated cut-off is given here; in the data, active = GI50 up to about 1.1 µM and inactive = higher.

As to `OCCSCc1cc(Cl)cc(Cl)c1O`, the GI50 in test [1] was > 100 µM (inactive); in test [2], > 100 µM (inactive); in test [3], > 100 µM (inactive); in [4], > 100 µM (inactive); in [5], > 100 µM (inactive); in test [6], greater than 100 µM. Besides, the GI50 in [7], in [8], in [9], in test [10], in [11] and in test [12] was > 100 µM (inactive) each time. Besides, the GI50 in [13], in test [14], in test [15], in test [16], in test [17] and in [18] was > 100 µM (inactive) in each case.

As for `CCOC(=O)/C(C(=O)c1ccc([N+](=O)[O-])cc1)=C(\NS(=O)(=O)c1cc(C)c(Cl)cc1[S-])[n+]1ccc(N(C)C)cc1`, the GI50 was 30.3 µM (inactive) in test [1]; 21.4 µM (inactive) in test [2]; 38.8 µM (inactive) in [3]; 31.4 µM (inactive) in test [4]; 31 µM (inactive) in [5]; 34 µM in [6]. Further, the GI50 in test [7] was 24 µM (inactive); in [8], 32.8 µM (inactive); in test [9], 32.2 µM (inactive); in test [10] it was 12.4 µM (inactive); in test [11], 43.1 µM (inactive); in [12], 28.8 µM (inactive). Besides, the GI50 in test [13] was 38.9 µM (inactive); in [14] it was 16.7 µM (inactive); in test [15], 28.1 µM (inactive); in test [16], 16.7 µM (inactive); in test [19], 21.5 µM (inactive); in test [17], 6.47 µM (inactive). Besides, the GI50 in [18] is 35.3 µM (inactive).

Turning to `CO[C@]12C[C@H](CNC(=O)c3ccc[nH]3)O[C@H]1NC(=O)N2`, the GI50 was > 100 µM (inactive) in [1]; > 100 µM (inactive) in test [2]; > 100 µM (inactive) in [3]; > 100 µM (inactive) in [4]; > 100 µM (inactive) in test [5]; greater than 100 µM in test [6]. The GI50 in [7] was 33.7 µM (inactive); in [8], > 100 µM (inactive); in test [10], > 100 µM (inactive); in test [11], > 100 µM (inactive); in [12], > 100 µM (inactive); in test [13] it was > 100 µM (inactive). Further, the GI50 in test [14], in test [15], in test [16], in [19], in test [17] and in test [18] was > 100 µM (inactive) each time.

As for `O=C(N(O)c1ccccc1Cl)C(O)(c1ccccc1)c1ccccc1`, the GI50 is 31.3 µM (inactive) in test [1]; > 100 µM (inactive) in test [2]; 71.1 µM (inactive) in test [3]; 15.4 µM (inactive) in test [4]; 59.8 µM (inactive) in test [5]; 39.3 µM in [6]. Moreover, the GI50 was 85.7 µM (inactive) in [7]; 65.2 µM (inactive) in [8]; 30.8 µM (inactive) in test [9]; 33 µM (inactive) in [10]; 63.8 µM (inactive) in test [11]; 82 µM (inactive) in test [12]. Also, the GI50 in test [13] is 76.2 µM (inactive); in test [14] it was 91.6 µM (inactive); in test [15], 23.8 µM (inactive); in test [16], 30.4 µM (inactive); in test [19], > 100 µM (inactive); in [17] it was > 100 µM (inactive). Besides, the GI50 in test [18] was 20.6 µM (inactive).

With `Cc1nc2c(=O)n(-c3ccccc3)c3ccccc3c2o1`, the GI50 in test [1] was > 100 µM (inactive); in test [2] it was > 100 µM (inactive); in test [3], > 100 µM (inactive); in [4], > 100 µM (inactive); in test [5], > 100 µM (inactive); in test [6], greater than 100 µM. Also, the GI50 in test [7], in test [8], in test [9], in [11], in test [12] and in test [13] was > 100 µM (inactive) throughout. Also, the GI50 in test [14], in test [15], in test [16], in test [19], in [20] and in [17] was > 100 µM (inactive) throughout. Besides, in test [18], the GI50 was > 100 µM (inactive).

Take `CC1C/C(=C\c2ccc(OC(=O)C(C)(C)C)cc2)C(=O)/C(=C/c2ccc(OC(=O)C(C)(C)C)cc2)C1` (centres undefined): the GI50 is 54.3 µM (inactive) in test [1]; 33.6 µM (inactive) in test [2]; 40.6 µM (inactive) in test [3]; 2.34 µM (inactive) in test [4]; > 100 µM (inactive) in test [5]; greater than 100 µM in test [6]. Further, the GI50 was > 100 µM (inactive) in test [7]; 46.5 µM (inactive) in [8]; 7.66 µM (inactive) in test [9]; 4.29 µM (inactive) in test [10]; > 100 µM (inactive) in [11]; > 100 µM (inactive) in test [12]. The GI50 was 36 µM (inactive) in [13]; 72.4 µM (inactive) in test [14]; 81.5 µM (inactive) in test [16]; 39.5 µM (inactive) in test [19]; > 100 µM (inactive) in test [17].

In the case of `C[C@@H]1[C@H](C)N1CC(O)Cn1ccnc1[N+](=O)[O-]` (some centres undefined), the GI50 in test [1] is > 100 µM (inactive); in [2], > 100 µM (inactive); in [3], > 100 µM (inactive); in test [4] it was > 100 µM (inactive); in [5], > 100 µM (inactive); in [6], greater than 100 µM. Besides, the GI50 in [7], in [8], in test [9], in test [10], in test [11] and in [12] was > 100 µM (inactive) in each case. For the same molecule, the GI50 in test [13], in test [14], in [16], in test [19], in test [20] and in [17] was > 100 µM (inactive) throughout. For the same molecule, in test [18], the GI50 is > 100 µM (inactive).

As to `COc1ccc(-c2oc3c(CC(=O)O)cccc3c(=O)c2OC)cc1`, the GI50 in test [1], in test [2], in test [3], in [4], in test [5] and in [7] was > 100 µM (inactive) in each case. Moreover, the GI50 in test [8], in test [9], in [10], in test [11], in [12] and in test [13] was > 100 µM (inactive) throughout. Besides, the GI50 in test [14] is > 100 µM (inactive); in test [16], > 100 µM (inactive); in [19], > 100 µM (inactive); in test [17] it was > 100 µM (inactive); in test [18] it was 0.0809 µM (active).

Take `O=C1Nc2ccc(Br)cc2/C1=N/NC(=S)Nc1ccc([N+](=O)[O-])cc1`: the GI50 in test [1] is 8.91 µM (inactive); in [2] it was 5.56 µM (inactive); in test [5] it was 11.9 µM (inactive); in test [6], 2.69 µM; in test [7], 7.71 µM (inactive); in test [8], 6.41 µM (inactive). In addition, the GI50 is 5.31 µM (inactive) in test [9]; 9.79 µM (inactive) in test [10]; 2.01 µM (inactive) in test [11]; 13.2 µM (inactive) in [12]; 6.37 µM (inactive) in [13]; 7.13 µM (inactive) in test [14]. Besides, the GI50 was 6.08 µM (inactive) in test [16], 20.2 µM (inactive) in test [19], 16 µM (inactive) in test [20] and 14.4 µM (inactive) in [17].

As for `Nc1ccn([C@@H]2C=C(CO)[C@@H](O)[C@H]2O)c(=O)n1`, the GI50 was 0.103 µM (active) in test [1]; 1.84 µM (inactive) in [2]; 0.0592 µM (active) in [3]; 0.0617 µM (active) in test [4]; 0.0261 µM (active) in test [5]; 0.0916 µM in test [6]. The GI50 in test [7] is 0.11 µM (active); in test [8] it was 0.05 µM (active); in test [9], 0.0501 µM (active); in test [10], 0.6 µM (active); in [11], 0.092 µM (active); in [12] it was 1.48 µM (inactive). Further, the GI50 is 0.0817 µM (active) in [13]; 0.0555 µM (active) in [14]; 0.155 µM (active) in [16]; 0.254 µM (active) in [19]; 2.07 µM (inactive) in test [20]; 0.105 µM (active) in test [18].

For the molecule `COC(=O)Nc1nc2ccccc2[nH]1` [CARBENDAZIM], the GI50 in test [1] is 9.53 µM (inactive); in test [2], > 100 µM (inactive); in test [3] it was 6.97 µM (inactive); in test [4] it was 21.2 µM (inactive); in test [5], 5.18 µM (inactive); in test [6], 3.37 µM. The GI50 was 4.66 µM (inactive) in test [7]; 2.34 µM (inactive) in test [8]; 6.34 µM (inactive) in test [9]; 3.13 µM (inactive) in [11]; 49.4 µM (inactive) in test [12]; 10.8 µM (inactive) in test [13]. The GI50 in test [14] was 15.3 µM (inactive); in [15], 5.25 µM (inactive); in [16], 4.72 µM (inactive); in [19], 5.2 µM (inactive); in test [20], 9.38 µM (inactive); in test [17], > 61 µM (inactive). The GI50 in test [18] is 20.7 µM (inactive).
